Experiments:
Echinochloa [1] = assay: Post-emergence greenhouse pot trial, Echinochloa (Example I, Table I); assay type: in vivo; conditions: greenhouse pots, 4 weeks
Procedure: (§1) Seeds of weed grasses were sown in pots filled with loamy soil and placed in the greenhouse for germination and emergence. As soon as the plants had developed 3 or 4 leaves, they were sprayed with wettable powder formulations, suspended in water, of compounds according to the invention.
(§2) The results and also the results of all following examples were evaluated 4 weeks later according to the following scheme:
(§3) 4 is still considered an acceptable herbicidal effect in weeds and a satisfactory preserving effect in crop plants (cf. Bolle, Nachrichtenblatt des Deutschen Pflanzenschutzdienstes 16, 1964, pages 92-94).
(§4) Effect on weed grasses in a post-emergence trial in pots
(§5) in the greenhouse (Evaluation scheme)

Lolium [2] = assay: Post-emergence greenhouse pot trial, Lolium (Example I, Table I); assay type: in vivo; conditions: greenhouse pots, 4 weeks
Procedure: as §1, §2, §3, §4, §5

Avena fatua [3] = assay: Post-emergence treatment, pots on a site without roof, Avena fatua (Example IV, Table IV); assay type: in vivo; conditions: for Effect (evaluation scheme), Avena fatua: post-emergence, emulsion concentrate
Procedure: as §2
(§6) In summer a further experiment was carried through under similar conditions to compare the effect of compound 1a with that of comparative compound A. Both compounds were used in the form of an emulsion concentrate (Table IV).
(§7) Post-emergence treatment (evaluation scheme); experiment
(§8) in pots on a site without roof

Avena fatua [4] = assay: Post-emergence trial in two stages, pots on a site without roof, wild oat (Example II, Table II); assay type: in vivo; conditions: for 90% effective dose: probit method; for Effect on wild oat (evaluation), Avena fatua: post-emergence
Procedure: as §2
(§9) The amounts of active compound required for a 90% effect, determined by the probit method (cf. Bliss, Annals of Applied Biology, 22 1935), show very distincly the difference between the compound of the invention and the comparative compound. […] None of the compounds did any harm to the wheat.
(§10) Post-emergence treatment in two different stages of development
(§11) Experiments in pots on a site without roof
(§12) stage 1: 3 to 4 leaves with beginning growth of side
(§13) stage 2: main tillering to terminated tillering.

spring wheat [5] = assay: Post-emergence treatment, pots on a site without roof, spring wheat (Example IV, Table IV); assay type: in vivo; conditions: emulsion concentrate; further: ranges in brackets are in %
Procedure: as §2, §6, §7, §8

wild oat [6] = assay: Field trial in wild oat, post-emergence treatment (Example VI, Table VI); assay type: in vivo; conditions: for efficiency in % (counting of panicles) / evaluation 5 weeks after treatment: post-emergence
Procedure: In a field trial compound 1a of the invention was sprayed in the form of a 36% wettable powder formulation onto wild oat (single system, natural growth) after the plants had developed 3 or 4 leaves.
Three lots each were treated with different concentrations of the active compound and the comparative compound, the amount of spray liquor applied being 600 liters per hectare. Besides the usual visual evaluation at the end of the trial, the number of panicles per square meter was counted. In the untreated lots 400 to 500 panicles were counted per square meter, i.e. the field was heavily infected.
The relations are still more distinct when the amount of active compound required for a 90% effect is determined by the probit method (graphical evaluation) mentioned in Example II.

Alopecurus = assay: Post-emergence greenhouse pot trial, annual blackgrass (Example I, Table I); assay type: in vivo, annual blackgrass (Alopecurus); conditions: greenhouse pots, 4 weeks
Procedure: as §1, §2, §3, §4, §5

Digitaria [7] = assay: Pre-emergence greenhouse pot trial, Digitaria (Example V, Table V); assay type: in vivo
Procedure: as §2
(§14) In a greenhouse the compounds to be tested were sprayed on the surface of the soil directly after sowing. […] Dicotyledonous crop plants (the same as used in Example I) were not damaged by the applied amounts.
(§15) Effect on weed grasses in a pre-emergence process (evalua-
(§16) tion scheme) experiment in pots in the greenhouse.

sugar beet = assay: Post emergence treatment in two stages, boxes on a site without roof, sugar beet (Table III); assay type: in vivo; conditions: 0.9 kg/hectare
Procedure: as §2
(§17) Effect on wild oat and sugar beet
(§18) Post emergence treatment in two stages of development
(§19) boxes 20 × 24 × 22 cm in size on a site without roof

Echinochloa [8] = assay: Pre-emergence greenhouse pot trial, Echinochloa (Example V, Table V); assay type: in vivo
Procedure: as §2, §14, §15, §16

Setaria [9] = assay: Post-emergence greenhouse pot trial, Setaria (Example I, Table I); assay type: in vivo; conditions: greenhouse pots, 4 weeks
Procedure: as §1, §2, §3, §4, §5

Setaria [10] = assay: Pre-emergence greenhouse pot trial, Setaria (Example V, Table V); assay type: in vivo
Procedure: as §2, §14, §15, §16

Alopecurus myos. = assay: Post-emergence treatment, pots on a site without roof, blackgrass (Example IV, Table IV); assay type: in vivo, annual black-grass (Alopecurus); conditions: for Effect (evaluation scheme), Alopecurus myos.: post-emergence, emulsion concentrate
Procedure: as §2, §6, §7, §8

spring wheat [11] = assay: Post-emergence trial in two stages, pots on a site without roof, spring wheat (Example II, Table II); assay type: in vivo
Procedure: as §2, §9, §10, §11, §12, §13

weed grasses = assay: Pre-emergence greenhouse pot trial, weed grasses overall (Example V); assay type: in vivo; conditions: in words
Procedure: as §2, §14, §15, §16

Avena ludoviciana = assay: Post-emergence treatment, pots on a site without roof, Avena ludoviciana (Example IV, Table IV); assay type: in vivo; conditions: for Effect (evaluation scheme), Avena ludoviciana: post-emergence, emulsion concentrate
Procedure: as §2, §6, §7, §8

Avena fatua [12] = assay: Post emergence treatment in two stages, boxes on a site without roof, wild oat (Table III); assay type: in vivo; conditions: 0.9 kg/hectare
Procedure: as §2, §17, §18, §19

Lolium [13] = assay: Pre-emergence greenhouse pot trial, Lolium (Example V, Table V); assay type: in vivo
Procedure: as §2, §14, §15, §16

spring barley = assay: Post-emergence treatment, pots on a site without roof, spring barley (Example IV, Table IV); assay type: in vivo; conditions: emulsion concentrate; further: ranges in brackets are in %
Procedure: as §2, §6, §7, §8

Digitaria [14] = assay: Post-emergence greenhouse pot trial, Digitaria (Example I, Table I); assay type: in vivo; conditions: greenhouse pots, 4 weeks
Procedure: as §1, §2, §3, §4, §5

wild oat [15] = assay: Post-emergence trial in the greenhouse, wild oat (Example VII, Table VII); assay type: in vivo; conditions: 31 kg/hectare, emulsion concentrate, 4 weeks after treatment
Procedure: as §2
In a greenhouse some of the compounds of the invention were sprayed on plants of wild oat, the compounds being used as emulsion concentrates.
Post-emergence trial in the greenhouse
Effect on wild oat 4 weeks after treatment
Dose 31 kg/hectare of active compound (as emulsion

COC(=O)C(C)Oc1ccc(Oc2ccc(Br)cc2Cl)cc1 (stereo not drawn) [Compound 1a, Methyl-4-(2'-chloro-4'-bromophenoxy)-α-phenoxy-propionate]
Effect on weed grasses (evaluation scheme number), Echinochloa (Echinochloa [1]; 0.15 kg/hectare): 2 (97.5 to <100)
Effect on weed grasses (evaluation scheme number), Echinochloa (Echinochloa [1]; 0.62 kg/hectare): 2 (97.5 to <100)
Effect on weed grasses (evaluation scheme number), Echinochloa (Echinochloa [1]; 2.5 kg/hectare): 1 (100)
Effect on weed grasses (evaluation scheme number), Lolium (Lolium [2]; 0.15 kg/hectare): 5 (85.0 to <90.0)
Effect on weed grasses (evaluation scheme number), Lolium (Lolium [2]; 0.62 kg/hectare): 3 (95.0 to <.97.5)
Effect on weed grasses (evaluation scheme number), Lolium (Lolium [2]; 2.5 kg/hectare): 2 (97.5 to <100)
Effect (evaluation scheme), Avena fatua (Avena fatua [3]; 0.225 kg/hectare): 7 (65.0 to <75.0)
Effect (evaluation scheme), Avena fatua (Avena fatua [3]; 0.45 kg/hectare): 6 (75.0 to <85.0)
Effect (evaluation scheme), Avena fatua (Avena fatua [3]; 0.9 kg/hectare): 5 (85.0 to <90.0)
effect on Avena fatua compared with comparative compound (Avena fatua [3]; in words): distinctly better effect than the comparative compound
dosage sufficient with respect to the comparative compound (90% effect) (Avena fatua [4]; applied in the second stage): about half the dosage
effect on wild oat compared with compound A (Avena fatua [4]; emulsion concentrate of 36% strength, in words): better effect on wild oat than compound A
90% effective dose (Avena fatua [4]; stage 1 (3 to 4 leaves with beginning growth of side)): 0.34 kg per hectare
Effect on wild oat (evaluation), Avena fatua (Avena fatua [4]; stage 1, 0.112 kg/hectare): 6 (75.0 to <85.0)
Effect on wild oat (evaluation), Avena fatua (Avena fatua [4]; stage 1, 0.225 kg/hectare): 5 (85.0 to <90.0)
Effect on wild oat (evaluation), Avena fatua (Avena fatua [4]; stage 1, 0.45 kg/hectare): 4 (90.0 to <95.0)
Effect on wild oat (evaluation), Avena fatua (Avena fatua [4]; stage 1, 0.9 kg/hectare): 3 (95.0 to <.97.5)
90% effective dose (Avena fatua [4]; stage 2 (main tillering to terminated tillering)): 0.45 kg per hectare
Effect on wild oat (evaluation), Avena fatua (Avena fatua [4]; stage 2, 0.112 kg/hectare): 7 (65.0 to <75.0)
Effect on wild oat (evaluation), Avena fatua (Avena fatua [4]; stage 2, 0.225 kg/hectare): 6 (75.0 to <85.0)
Effect on wild oat (evaluation), Avena fatua (Avena fatua [4]; stage 2, 0.45 kg/hectare): 4 (90.0 to <95.0)
Effect on wild oat (evaluation), Avena fatua (Avena fatua [4]; stage 2, 0.9 kg/hectare): 3 (95.0 to <.97.5)
evaluation scheme, spring wheat (spring wheat [5]; 0.225 kg/hectare): 1 (0)
evaluation scheme, spring wheat (spring wheat [5]; 0.45 kg/hectare): 1 (0)
evaluation scheme, spring wheat (spring wheat [5]; 0.9 kg/hectare): 1 (0)
efficiency in % (counting of panicles) (wild oat [6]; 0.54 kg/hectare): 79.0%
evaluation 5 weeks after treatment (wild oat [6]; 0.54 kg/hectare): 7 (65.0 to <75.0)
efficiency in % (counting of panicles) (wild oat [6]; 0.72 kg/hectare): 90.0%
evaluation 5 weeks after treatment (wild oat [6]; 0.72 kg/hectare): 5 (85.0 to <90.0)
efficiency in % (counting of panicles) (wild oat [6]; 0.90 kg/hectare): 97.4%
evaluation 5 weeks after treatment (wild oat [6]; 0.90 kg/hectare): 3 (95.0 to <.97.5)
amount sufficient compared with the comparative compound (90% effect) (wild oat [6]; probit method): about 1/4
amount of active compound required for a 90% effect (wild oat [6]; without wetting agent, probit method (graphical evaluation)): 0.68 kg/hectare
Effect on weed grasses (evaluation scheme number), Alopecurus (Alopecurus; 0.15 kg/hectare): 3 (95.0 to <.97.5)
Effect on weed grasses (evaluation scheme number), Alopecurus (Alopecurus; 0.62 kg/hectare): 1 (100)
Effect on weed grasses (evaluation scheme number), Alopecurus (Alopecurus; 2.5 kg/hectare): 1 (100)
Effect on weed grasses (evaluation scheme), Digitaria (Digitaria [7]; 0.62 kg/hectare): 4 (90.0 to <95.0)
Effect on weed grasses (evaluation scheme), Digitaria (Digitaria [7]; 1.25 kg/hectare): 2 (97.5 to <100)
sugar beet number (sugar beet; 2-leaf stage): 2 (0 to 2.5)
sugar beet number (sugar beet; 4-leaf stage): 2 (0 to 2.5)
Effect on weed grasses (evaluation scheme), Echinochloa (Echinochloa [8]; 0.62 kg/hectare): 3 (95.0 to <.97.5)
Effect on weed grasses (evaluation scheme), Echinochloa (Echinochloa [8]; 1.25 kg/hectare): 2 (97.5 to <100)
Effect on weed grasses (evaluation scheme number), Setaria (Setaria [9]; 0.15 kg/hectare): 2 (97.5 to <100)
Effect on weed grasses (evaluation scheme number), Setaria (Setaria [9]; 0.62 kg/hectare): 1 (100)
Effect on weed grasses (evaluation scheme number), Setaria (Setaria [9]; 2.5 kg/hectare): 1 (100)
Effect on weed grasses (evaluation scheme), Setaria (Setaria [10]; 0.62 kg/hectare): 6 (75.0 to <85.0)
Effect on weed grasses (evaluation scheme), Setaria (Setaria [10]; 1.25 kg/hectare): 4 (90.0 to <95.0)
Effect (evaluation scheme), Alopecurus myos. (Alopecurus myos.; 0.225 kg/hectare): 5 (85.0 to <90.0)
Effect (evaluation scheme), Alopecurus myos. (Alopecurus myos.; 0.45 kg/hectare): 3 (95.0 to <.97.5)
Effect (evaluation scheme), Alopecurus myos. (Alopecurus myos.; 0.9 kg/hectare): 1 (100)
response of annual black-grass (Alopecurus) (Alopecurus myos.; in words): responded very well
evaluation, spring wheat (spring wheat [11]; stage 1, 0.112 kg/hectare): 1 (0)
evaluation, spring wheat (spring wheat [11]; stage 1, 0.225 kg/hectare): 1 (0)
evaluation, spring wheat (spring wheat [11]; stage 1, 0.45 kg/hectare): 1 (0)
evaluation, spring wheat (spring wheat [11]; stage 1, 0.9 kg/hectare): 2 (0 to 2.5)
evaluation, spring wheat (spring wheat [11]; stage 2, 0.112 kg/hectare): 1 (0)
evaluation, spring wheat (spring wheat [11]; stage 2, 0.225 kg/hectare): 1 (0)
evaluation, spring wheat (spring wheat [11]; stage 2, 0.45 kg/hectare): 1 (0)
evaluation, spring wheat (spring wheat [11]; stage 2, 0.9 kg/hectare): 2 (0 to 2.5)
effect in pre-emergence treatment compared with comparative compound A (weed grasses): better effect
Effect (evaluation scheme), Avena ludoviciana (Avena ludoviciana; 0.225 kg/hectare): 6 (75.0 to <85.0)
Effect (evaluation scheme), Avena ludoviciana (Avena ludoviciana; 0.45 kg/hectare): 5 (85.0 to <90.0)
Effect (evaluation scheme), Avena ludoviciana (Avena ludoviciana; 0.9 kg/hectare): 4 (90.0 to <95.0)
effect on Avena ludoviciana compared with comparative compound (Avena ludoviciana; in words): distinctly better effect than the comparative compound
Effect on wild oat, Avena fatua, number (Avena fatua [12]; 3-leaf stage): 1 (100)
degree of damage % (evaluation by weight), Avena fatua (Avena fatua [12]; 3-leaf stage): 100%
Effect on wild oat, Avena fatua, number (Avena fatua [12]; start of tillering): 3 to 4
degree of damage % (evaluation by weight), Avena fatua (Avena fatua [12]; start of tillering): 96%
Effect on weed grasses (evaluation scheme), Lolium (Lolium [13]; 0.62 kg/hectare): 6 (75.0 to <85.0)
Effect on weed grasses (evaluation scheme), Lolium (Lolium [13]; 1.25 kg/hectare): 3 (95.0 to <.97.5)
evaluation scheme, spring barley (spring barley; 0.225 kg/hectare): 1 (0)
evaluation scheme, spring barley (spring barley; 0.45 kg/hectare): 1 (0)
evaluation scheme, spring barley (spring barley; 0.9 kg/hectare): 1 (0)
Effect on weed grasses (evaluation scheme number), Digitaria (Digitaria [14]; 0.15 kg/hectare): 6 (75.0 to <85.0)
Effect on weed grasses (evaluation scheme number), Digitaria (Digitaria [14]; 0.62 kg/hectare): 1 (100)
Effect on weed grasses (evaluation scheme number), Digitaria (Digitaria [14]; 2.5 kg/hectare): 1 (100)
effect (number) on wild oat (wild oat [15]): 1 (100)
